Data on three substances can be found in PMC11345766, “Computational Design of Pore-Forming Peptides with Potent Antimicrobial and Anticancer Activities” (Journal of Medicinal Chemistry, 2024).

Ends that are not written are not given here.

The subject of data set [1] is A. baumannii Z13 (GEN, AMI, IMI, MER). The conditions noted are these: A. baumannii / Z13 / GEN, AMI, IMI, MER / Prot. c; Prot. c.
Data set [2] deals with K. pneumoniae 4371 (GEN, AMI, IMI, MER). As to conditions: K. pneumoniae / 4371 / GEN, AMI, IMI, MER / Prot. c; Prot. c.
Data set [3] deals with murine macrophages RAW 264.7. As to conditions: 24 h. Summed up: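 RAW 264.7 murine macrophages seeded at 4 × 10^4 cells/well in DMEM with 2% FBS, then exposed to peptides (2–128 μM) for 24 h at 37 °C. Viability by MTT (0.5 mg/mL, 4 h) reduction to formazan, dissolved in acidified isopropanol, read at OD570; untreated cells as negative control.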
The subject of data set [4] is MOLM-13, MEC-1 and SU-DHL-4 cancer cell lines. As to conditions: 24 h. As to the method: Anticancer activity of peptides against acute myeloid leukemia MOLM-13, chronic lymphocytic leukemia MEC-1, and diffuse large B-cell lymphoma SU-DHL-4 cell lines was tested using a WST cell viability assay. Cells were cultured in 75 cm^2 culture flasks at 37 °C in 5% CO2 according to the DSMZ recommendations before the start of the experiment. Then, the cells were seeded into 96-well plates in quadruplicate at 2.5 × 10^4 cells/well for SU-DHL-4, and 5 × 10^4 cells/well for MEC-1 and MOLM-13. Cells were treated with either peptides or PBS alone (negative control) for 24–72 h at 37 °C in 5% CO2. After incubation, cell viability was measured by WST-1 (Roche) according to the manufacturer’s instructions using Tecan microplate reader Infinite M200 PRO Plex and expressed as percentage compared to control.

Data set [5] concerns normal B and T lymphocytes, granulocytes, and monocytes in whole blood. The data set is described as follows: Viability by flow cytometric staining in whole blood. Format: cell-based, human. The conditions noted are these: up to the highest tested concentration of 50 μM; 16 h. As to the method: Finally, we tested the effect of LP1 and LP40 on healthy primary cells in whole blood from a healthy donor (Figure S11).
The whole blood was seeded in a 96-well plate at 200 μL/well and treated with peptides for 16 h. The samples were then stained with anti-CD3 (FITC, Sony), anti-CD14 (APC-Cy7, Sony), and anti-CD19 (PE, Beckman Coulter) antibodies and incubated for 20 min at room temperature in the dark. The cells were then incubated with red blood cell lysis buffer for 10 min at room temperature, centrifuged, resuspended in PBS containing SYTOX Blue Dead Cell Stain (Thermo Fisher Scientific) and measured using a FACSVerse flow cytometer (BD Biosciences).
On the technique in general: Flow cytometry measures light scatter and fluorescence of single cells or particles in a stream.

The conditions of data set [6]: single intraperitoneal dose at 10 times the MIC.
Protocol: Neutropenic mice were infected intramuscularly (in the right thigh) with 10^6 cells per mL of Gram-negative A. baumannii (ATCC 19606).
(a) Schematic of the deep thigh infection model in which bacteria are injected intramuscularly at day 4 and peptides are administered intraperitoneally also at day 4 to assess their anti-infective activity. Mice were euthanized 4 days postinfection (day 8). Each group consisted of six mice (n = 6), and the bacterial loads used to infect the mice derived from three different inocula. […] Polymyxin B (0.006 mg/kg) and levofloxacin (0.014 mg/kg) were used as the reference antibiotics. Statistical significance was done using one-way ANOVA followed by Dunnett’s test. Violin plots represent the median, upper quartile, and lower quartile. (c) Mouse weight was monitored to exclude possible toxic effects of the peptides.
Six-week-old female CD-1 mice (obtained from Charles River; stock number 18679700-022) underwent neutropenia induction via two intraperitoneal doses of cyclophosphamide (150 mg kg^–^1) administered with a 72 h interval. One day later, the mice received an intramuscular injection containing A. baumannii ATCC 19606 (10^6 CFU mL^–1) in the right thigh. Bacteria were cultured in LB broth, washed twice with PBS (pH 7.4), and resuspended to the desired concentration. […] Polymyxin B (0.006 mg/kg) and levofloxacin (0.014 mg/kg) were used as the reference antibiotics. Prior to each injection, mice were anesthetized with isoflurane and their respiratory rate and pedal reflexes were monitored. Subsequently, we observed the infection establishment and euthanized the mice. The infected area was excised 4 days postinfection (i.e., 8 days after the beginning of the experiment), homogenized using a bead beater for 20 min (25 Hz), and 10-fold serially diluted for CFU quantification on MacConkey agar plates. Each experimental group comprised three mice. All experiments were conducted blindly, and no animals were excluded from the analysis. Statistical significance was assessed using one-way ANOVA followed by Dunnett’s test on log10-transformed data to mitigate outlier effects; p values are reported for each group, with all groups compared to the untreated control group.
Data set [7] has as its system human red blood cells (HRBCs). As to conditions: read-out: Hemolysis toxicity (IC50); 1 h incubation. The procedure: To investigate the toxicity for normal human cells, all peptides were first screened against human red blood cells (HRBCs) using a hemolysis assay (Table 2 and Figure S4).
Hemolysis toxicity was tested against HRBCs. Blood samples, collected from the university hospital, were centrifuged twice at 700 × g and once at 1000 × g for 8 min at 4 °C to obtain erythrocyte pellets. Supernatants were always discarded, and pellets were resuspended in PBS (the same as the antimicrobial susceptibility assay). The final RBC suspension was 0.5% (v/v). Dilution series was prepared for concentrations 50 to 0.1 μM in a V-bottom 96-well plate, followed by the addition of RBC suspension. […] After 1 h of incubation at 37 °C, the well plate was centrifuged at 1000 × g for 10 min at 4 °C. The supernatant, collected in a flat-bottom well plate, was measured for OD415 using Tecan Microplate Reader Infinite F500.

Data set [8] has as its system panel of 20 different human cancer and 2 noncancerous cell lines. Format: cell-based. The conditions noted are these: 72 h. The procedure:
First, we tested LP40 and LP1 for anticancer activity at the physiological pH. The peptides were screened against a panel of 20 different human cancer and 2 noncancerous cell lines using a CellTiter-Glo luminescent cell viability assay (Figure 6b). […] For few exceptional cell lines, the activity of LP40 was below 10 μM.
The CellTiter-Glo luminescent cell viability assay examining the impact of peptides on 22 different human cell lines was purchased from Reaction Biology Europe GmbH (Germany). Cells were cultured in different media (Table S1), seeded into a flat-bottom 96-well plate, and incubated at 37 °C. After overnight incubation, test compounds were added with 1% PBS/0.3% Tween 20 and the reference compound bortezomib was added with 0.1% DMSO. Negative controls were solvents alone, and positive control was 10 μM staurosporine. After 72 h of incubation at 37 °C, 5 or 10% CO2 (dependent on the medium), and 1 h equilibration at room temperature, well plates were treated with CellTiter-Glo reagent (Promega) for an hour and luminescence was measured using a luminometer.

The subject of the next data set is E. coli AIC221. The conditions noted are these: E. coli / AIC221 / Prot. d; Prot. d.
The next data set relates to E. coli AIC222 (COL). As to conditions: E. coli / AIC222 / COL / Prot. d; Prot. d.
The test system of another data set is E. coli ATCC 11775. The conditions noted are these: E. coli / ATCC 11775 / Prot. d; Prot. d.
Data set [9] relates to E. coli E1098 (GEN, AMI, IMI, MER). The conditions noted are these: E. coli / E1098 / GEN, AMI, IMI, MER / Prot. c; Prot. c.

Regarding “KKKKLKKILKKLFQFINQLDNQLQDIKQNK-NH2 [LP1]”, the MIC – broadly, the smallest concentration in the dilution series that meets the test's criterion for growth inhibition – in [1] came to 4 µM; in data set [2], 16 µM. The results for the concentration for half-maximal inhibition (IC50) in data set [3] and in data set [4] were 44 µM and below 10 µM, respectively. Besides, the “Effect on healthy primary cells in whole blood” value in data set [5] is “no apparent deleterious effect”. Further, the “Change in mouse weight” value in data set [6] is “no significant change in mouse weight”.
As to “H-HHHHLKKILKKLFQFINQLDNQLQDIHHHH-OH [LP40]”, the values for the IC50 in [7], in data set [8] and in data set [4] were above 50 µM, above 100 µM and 1 to 20 µM, respectively.
“KKKKLKKILKKLFQFINQLDNQLQDIKKKK-NH2 [LP18]”: the MIC was found to be 1.6 µM against E. coli AIC221, 1.6 µM with E. coli AIC222 (COL), 1.6 µM against E. coli ATCC 11775 and 2 µM in [9]. In addition, the midpoint of inhibition in data set [3], the IC50, lay at 25 µM. The “Change in mouse weight” value in data set [6] is “no significant change in mouse weight”.
